Entries after “also recorded” stand apart in the source; their conditions may differ. Positions of bridges follow the written chain, without caps; N, C: chain ends. Non-standard residues stand in square brackets, D forms with d. No end group written: not given here. Nle = CCCC[C@H](N)C(=O)O; dDap = NC[C@@H](N)C(=O)O; Dap = NC[C@H](N)C(=O)O; Nal = naphthylalanine
Legend:
[1] = system: NFκB; assay: NFκB reporter assay (SEAP) in THP1-XBlue-MD2-CD14 cells after LPS; assay type: cell-based; settings: for activity in reducing NFκB activation: LPS 5 ng/ml 24 hours; for NFκB inhibition activity: 50 μg/ml, LPS 5 ng/ml overnight, compared to SP163M (and SP22); for EC50 NFκB: NFκB reporter cells, LPS 5 ng/ml
Protocol: The NFκB inducible Secreted Embryonic Alkaline Phosphatase (SEAP) was measured in the supernatant and read for absorbance.
(§1) Various SERPIN peptide derivatives were screened in vitro for their ability to reduce TNFα and NFκB secretion via LRP-1 activation. The NFκB reporter cells (THP1-XBlue-MD2-CD14 cells) were treated with each peptide derivative at various concentrations, up to 100 μg/ml before being insulted with LPS (5 ng/ml) and incubated overnight. The NFκB inducible Secreted Embryonic Alkaline Phosphatase (SEAP) was measured in the supernatant and read for absorbance. IMG Microglial cells were treated with each peptide derivative at various concentrations, up to 100 μg/ml before LPS (100 ng/ml) stimulation for 24 hours. An ELISA was used to measure TNFα in the supernatant ([…]).

[2] = system: OVA induced allergic asthma; assay: OVA induced allergic asthma mouse model, lung homogenate; assay type: in vivo, mice
Text: Infiltration of immune cells into the lung likely account for the increase in total protein levels in the lung.

[3] = system: TNFα; assay: TNFα secretion in IMG microglial cells after LPS (ELISA); assay type: cell-based; settings: for activity in reducing TNFα: FIG. 6A/7, up to 50 μg/mL, versus SP163M, SA7; for activity in reducing TNFα / activity in reducing TNFα activation: LPS 100 ng/ml 24 hours; for EC50 TNFα: IMG microglial cells, LPS 100 ng/ml, 24 hours; for activity in reducing TNFα activation: A1-A15 screen, 50 or 100 μg/ml, FIG. 5
Protocol: In the NFκB reporter cells, the NFκB inducible Secreted Embryonic Alkaline Phosphatase (SEAP) was measured in the supernatant. TNFα secretion in the supernatant was measured via ELISA.
as §1

[4] = system: IL-6; assay: IL-6 secretion in IMG microglial cells after LPS (ELISA); assay type: cell-based; settings: for EC50 IL-6: IMG microglial cells, LPS 100 ng/ml, 24 hours
[5] = system: NFκB reporter cells or IMG microglial cells; assay: Cytotoxicity assay (CellTiter-Glo Luminescent Cell Viability Assay); settings: up to 12.5 μg/ml, 24 hours, NFκB reporter cells and IMG microglial cells, FIG. 11
Protocol: IMG cells were treated with peptide derivatives at concentrations at or exceeding those tested for the activity assays (FIGS. 5-7) for 24 hours.

[6] = biological target: low-density lipoprotein receptor related protein-1 (LRP-1) on THP1-XBlue-MD2-CD14 NFκB reporter cells (UniProt Q07954 20-4544); assay: cell-based or functional assay
[7] = biological target: low-density lipoprotein receptor related protein-1 (LRP-1) on IMG microglial cells (UniProt Q91ZX7 20-4545, limits assumed); assay: cell-based or functional assay
Chain of low-density lipoprotein receptor related protein-1 (LRP-1) on IMG microglial cells (Q91ZX7 20-4545 limits assumed): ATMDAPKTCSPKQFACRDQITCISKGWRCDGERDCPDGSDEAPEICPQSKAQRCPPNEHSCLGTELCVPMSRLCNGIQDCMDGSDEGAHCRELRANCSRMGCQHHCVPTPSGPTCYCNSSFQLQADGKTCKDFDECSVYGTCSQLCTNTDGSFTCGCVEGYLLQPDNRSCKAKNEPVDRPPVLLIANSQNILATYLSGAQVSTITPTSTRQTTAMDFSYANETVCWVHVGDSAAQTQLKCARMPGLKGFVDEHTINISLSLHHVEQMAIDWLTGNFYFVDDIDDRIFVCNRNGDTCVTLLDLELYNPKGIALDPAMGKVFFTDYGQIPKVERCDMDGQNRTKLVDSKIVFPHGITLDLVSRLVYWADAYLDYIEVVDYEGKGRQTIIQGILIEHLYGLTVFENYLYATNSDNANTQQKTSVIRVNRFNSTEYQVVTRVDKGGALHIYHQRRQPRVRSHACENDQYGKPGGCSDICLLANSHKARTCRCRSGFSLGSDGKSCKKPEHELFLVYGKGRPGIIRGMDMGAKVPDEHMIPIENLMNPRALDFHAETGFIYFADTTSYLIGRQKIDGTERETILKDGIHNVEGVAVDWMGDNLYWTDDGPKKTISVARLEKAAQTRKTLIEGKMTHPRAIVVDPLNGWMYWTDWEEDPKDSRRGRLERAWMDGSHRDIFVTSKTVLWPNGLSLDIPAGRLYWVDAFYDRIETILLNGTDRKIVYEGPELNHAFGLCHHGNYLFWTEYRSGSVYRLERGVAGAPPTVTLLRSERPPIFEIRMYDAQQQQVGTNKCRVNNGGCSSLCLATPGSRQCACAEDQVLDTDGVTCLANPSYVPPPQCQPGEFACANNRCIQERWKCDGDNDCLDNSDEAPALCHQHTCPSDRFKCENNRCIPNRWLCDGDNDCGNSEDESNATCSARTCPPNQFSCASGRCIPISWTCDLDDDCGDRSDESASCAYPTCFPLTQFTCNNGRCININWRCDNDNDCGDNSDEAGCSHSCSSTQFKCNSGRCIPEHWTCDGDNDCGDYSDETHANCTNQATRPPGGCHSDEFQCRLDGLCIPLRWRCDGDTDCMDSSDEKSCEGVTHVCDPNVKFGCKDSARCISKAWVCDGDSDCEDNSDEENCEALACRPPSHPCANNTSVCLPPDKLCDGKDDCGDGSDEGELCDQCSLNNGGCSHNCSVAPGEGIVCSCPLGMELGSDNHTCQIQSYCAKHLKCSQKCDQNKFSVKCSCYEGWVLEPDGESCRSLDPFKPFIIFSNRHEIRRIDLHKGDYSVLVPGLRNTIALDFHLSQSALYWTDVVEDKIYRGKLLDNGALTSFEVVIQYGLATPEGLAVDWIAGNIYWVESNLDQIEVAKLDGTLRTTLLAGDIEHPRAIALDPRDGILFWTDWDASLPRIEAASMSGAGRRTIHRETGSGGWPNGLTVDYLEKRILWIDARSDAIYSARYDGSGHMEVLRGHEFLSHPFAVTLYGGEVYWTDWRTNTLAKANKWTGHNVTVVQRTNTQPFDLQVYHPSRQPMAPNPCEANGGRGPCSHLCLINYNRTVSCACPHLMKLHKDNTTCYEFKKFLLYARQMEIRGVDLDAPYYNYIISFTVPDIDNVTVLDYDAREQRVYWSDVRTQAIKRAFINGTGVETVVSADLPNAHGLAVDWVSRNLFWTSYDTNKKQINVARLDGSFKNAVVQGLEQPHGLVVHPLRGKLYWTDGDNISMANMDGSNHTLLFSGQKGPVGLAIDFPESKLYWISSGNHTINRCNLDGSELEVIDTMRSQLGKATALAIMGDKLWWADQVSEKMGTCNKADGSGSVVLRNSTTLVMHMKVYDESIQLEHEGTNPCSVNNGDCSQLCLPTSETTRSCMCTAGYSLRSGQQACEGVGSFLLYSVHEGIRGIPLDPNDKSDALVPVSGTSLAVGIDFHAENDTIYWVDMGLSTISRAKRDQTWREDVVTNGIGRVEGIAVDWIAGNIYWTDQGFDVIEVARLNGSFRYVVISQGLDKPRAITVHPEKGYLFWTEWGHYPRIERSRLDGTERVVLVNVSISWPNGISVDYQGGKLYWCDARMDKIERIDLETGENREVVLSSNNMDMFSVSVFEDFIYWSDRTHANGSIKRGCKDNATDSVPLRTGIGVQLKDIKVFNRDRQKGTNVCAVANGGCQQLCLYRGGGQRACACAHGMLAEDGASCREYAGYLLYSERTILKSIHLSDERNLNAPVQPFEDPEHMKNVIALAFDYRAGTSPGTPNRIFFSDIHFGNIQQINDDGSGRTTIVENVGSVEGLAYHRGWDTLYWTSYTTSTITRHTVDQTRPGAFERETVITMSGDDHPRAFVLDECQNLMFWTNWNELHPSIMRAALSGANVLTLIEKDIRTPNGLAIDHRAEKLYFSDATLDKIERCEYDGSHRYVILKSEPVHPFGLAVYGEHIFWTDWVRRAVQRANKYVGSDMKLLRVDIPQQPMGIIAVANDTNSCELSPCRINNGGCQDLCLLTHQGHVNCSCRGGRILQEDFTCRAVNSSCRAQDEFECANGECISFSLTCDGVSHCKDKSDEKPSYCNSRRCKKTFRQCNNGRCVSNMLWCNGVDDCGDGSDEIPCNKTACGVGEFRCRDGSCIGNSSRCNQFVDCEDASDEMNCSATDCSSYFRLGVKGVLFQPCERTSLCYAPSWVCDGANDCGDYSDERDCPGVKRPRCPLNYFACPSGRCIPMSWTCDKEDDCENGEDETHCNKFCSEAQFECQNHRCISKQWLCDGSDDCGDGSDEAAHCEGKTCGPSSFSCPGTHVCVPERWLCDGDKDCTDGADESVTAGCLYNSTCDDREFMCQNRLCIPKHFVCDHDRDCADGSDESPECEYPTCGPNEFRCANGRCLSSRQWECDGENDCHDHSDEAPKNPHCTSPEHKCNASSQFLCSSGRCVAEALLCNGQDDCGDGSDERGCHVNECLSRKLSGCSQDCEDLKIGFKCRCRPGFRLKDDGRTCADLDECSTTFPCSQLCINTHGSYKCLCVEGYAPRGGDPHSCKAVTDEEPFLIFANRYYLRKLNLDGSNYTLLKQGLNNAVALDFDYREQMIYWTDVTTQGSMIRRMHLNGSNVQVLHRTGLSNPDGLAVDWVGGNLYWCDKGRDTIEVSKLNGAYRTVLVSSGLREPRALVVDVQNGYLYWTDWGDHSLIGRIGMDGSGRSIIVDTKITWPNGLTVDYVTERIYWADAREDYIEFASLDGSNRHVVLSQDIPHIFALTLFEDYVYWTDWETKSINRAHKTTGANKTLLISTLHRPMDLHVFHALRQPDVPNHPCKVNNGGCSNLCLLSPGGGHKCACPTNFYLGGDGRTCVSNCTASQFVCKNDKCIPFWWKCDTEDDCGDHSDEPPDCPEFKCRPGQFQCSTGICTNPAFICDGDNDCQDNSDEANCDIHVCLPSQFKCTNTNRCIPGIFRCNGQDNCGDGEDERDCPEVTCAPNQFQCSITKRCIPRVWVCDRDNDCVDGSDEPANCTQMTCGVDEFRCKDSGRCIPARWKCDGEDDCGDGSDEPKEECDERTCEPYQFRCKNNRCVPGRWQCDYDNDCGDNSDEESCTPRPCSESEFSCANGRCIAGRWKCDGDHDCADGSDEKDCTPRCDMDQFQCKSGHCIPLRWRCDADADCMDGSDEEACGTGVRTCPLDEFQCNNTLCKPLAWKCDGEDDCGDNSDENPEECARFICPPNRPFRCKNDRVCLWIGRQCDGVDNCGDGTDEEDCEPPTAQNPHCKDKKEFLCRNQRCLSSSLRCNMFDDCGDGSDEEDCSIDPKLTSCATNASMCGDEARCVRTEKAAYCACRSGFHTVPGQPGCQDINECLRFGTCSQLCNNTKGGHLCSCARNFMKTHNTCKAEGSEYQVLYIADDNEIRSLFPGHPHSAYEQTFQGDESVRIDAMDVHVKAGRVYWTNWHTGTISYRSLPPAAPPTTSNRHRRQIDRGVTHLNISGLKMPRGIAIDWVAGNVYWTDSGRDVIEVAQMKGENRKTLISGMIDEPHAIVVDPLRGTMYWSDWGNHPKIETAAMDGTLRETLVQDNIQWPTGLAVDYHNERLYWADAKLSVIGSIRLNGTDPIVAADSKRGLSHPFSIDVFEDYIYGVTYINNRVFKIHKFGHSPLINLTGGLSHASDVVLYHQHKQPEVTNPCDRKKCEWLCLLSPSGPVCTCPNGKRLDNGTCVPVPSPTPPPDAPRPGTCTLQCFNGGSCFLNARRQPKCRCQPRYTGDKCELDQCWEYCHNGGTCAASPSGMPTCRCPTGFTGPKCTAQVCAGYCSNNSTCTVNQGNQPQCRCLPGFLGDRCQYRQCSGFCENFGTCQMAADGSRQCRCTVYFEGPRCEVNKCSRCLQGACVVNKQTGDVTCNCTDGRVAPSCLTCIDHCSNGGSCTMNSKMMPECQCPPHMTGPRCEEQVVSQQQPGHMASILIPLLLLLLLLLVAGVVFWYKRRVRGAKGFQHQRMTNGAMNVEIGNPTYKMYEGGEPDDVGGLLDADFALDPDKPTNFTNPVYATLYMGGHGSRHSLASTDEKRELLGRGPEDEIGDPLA

[8] = biological target: serine protease TMPRSS2 (UniProt O15393 1-492, limits assumed); assay: cell-based or functional assay
Chain of serine protease TMPRSS2 (O15393 whole entry): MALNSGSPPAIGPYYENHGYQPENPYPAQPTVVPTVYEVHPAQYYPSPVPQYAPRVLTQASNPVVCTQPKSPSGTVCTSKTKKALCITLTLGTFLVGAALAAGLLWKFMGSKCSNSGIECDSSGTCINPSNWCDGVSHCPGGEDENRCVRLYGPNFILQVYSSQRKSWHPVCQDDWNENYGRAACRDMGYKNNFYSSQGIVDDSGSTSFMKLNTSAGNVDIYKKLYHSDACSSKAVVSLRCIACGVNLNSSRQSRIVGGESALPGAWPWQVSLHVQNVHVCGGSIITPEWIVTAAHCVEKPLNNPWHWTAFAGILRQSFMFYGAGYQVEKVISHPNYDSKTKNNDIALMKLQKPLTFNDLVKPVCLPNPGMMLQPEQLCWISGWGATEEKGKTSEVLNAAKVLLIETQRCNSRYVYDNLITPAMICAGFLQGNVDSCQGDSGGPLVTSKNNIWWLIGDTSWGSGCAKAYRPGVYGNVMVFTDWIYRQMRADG

[9] = FIG. 6B/7, up to 50 μg/mL, versus SP163M, SA7

“HN- RRRFVFL[dDap]D (cyclic) (not fully specified (bridges); printed as HN- RRRFVFL[dDap]D (cyclic); also: cyclic, ring not given here) [Peptide A3-10]” was tested, and the “activity in reducing NFκB activation” value ([1]; FIG. 9, 1.56 to 12.5 μg/ml) was “superior activities in reducing NFκB activation”.

For Ac-KKKPFVFL[Nle]KKK [SA4], the NFκB inhibition activity [1] was “minimal NFκB inhibition activity”.

For Ac-HHHPFVFLMHHH [SA1], the NFκB inhibition activity [1] was “minimal NFκB inhibition activity”.

In the case of Ac-RRRPFVFL[Nle]RRR [SA3], the NFκB inhibition activity [1] is reported as “improved activity in NFκB inhibition; also recorded: more effective in reducing NFκB activation”.

For “HN-RRRFVFL[dS]D (cyclic) (RRRFVFLSD; not fully specified; D-residues; cyclised or stapled) [Peptide A2-5]”, the “TSLP level in lung homogenate” value ([2]; compared to ova-induced vehicle treated mice, p=0.026) was “significantly lower levels of TSLP”, the “total protein levels in the lung” value ([2]; compared to vehicle treated animals, p<0.005) was “significantly decreased” and the “TH-2 mediated cytokines IL-5, IL-4 and IL-13 in lung tissue” value ([2]; compared with vehicle treated mice) was “reduction of TH-2 mediated cytokines IL-5, IL-4 and IL-13”. The “activity in reducing TNFα” value [3] was “superior activities in reducing TNFα” and the “activity in reducing NFκB activation” value [1, 9] was “superior activities”.

For “Ac- RRR[Dap]FT[Nal]L[Nle]D (cyclic) [Peptide A2-1]”, the “activity in reducing TNFα” value [3] was “superior activities in reducing TNFα”, the “EC50 TNFα” value [3] was 12.99 µg/mL and the “EC50 IL-6” value [4] was 9.644 µg/mL. For the same molecule, the “activity in reducing NFκB activation” value [1, 9] was “superior activities” and the “EC50 NFκB” value [1] was 5.77 µg/mL.

With HN-RRRFVFL[Nle]D (cyclic) [Peptide A15] the “activity in reducing TNFα activation” value [3] was “improved activities in reducing TNFα activation”, the “EC50 TNFα” value [3] was 36.75 µg/mL and the “EC50 IL-6” value [4] was 32.39 µg/mL. The “EC50 NFκB” value [1] was 5.053 µg/mL.

“Ac-RRRCFTFL[Nle]C (also: cyclic (positions not given here)) [Peptide A8]” was tested, and the “activity in reducing TNFα activation” value [3] was “improved activities in reducing TNFα activation”.

For “Ac- RRRCFV[Nal]L[Nle]C (cyclic) [Peptide A5]”, the “activity in reducing TNFα activation” value [3] was “improved activities in reducing TNFα activation”.

With “HN- RRRAT[Nal]L[NIe]D (cyclic) [Peptide A3-14]” the “EC50 TNFα” value [3] was 6 µg/mL, the cytotoxic effects [5] was “no cytotoxic effects” and the “activity in reducing IL-6 secretion” value ([4]; FIG. 10, up to 12.5 μg/ml, LPS 100 ng/ml 24 hours) was “superior activities in reducing IL-6 secretion”. The “EC50 IL-6” value [4] was 0.605 µg/mL, the “activity in reducing NFκB activation” value ([1]; FIG. 9, 1.56 to 12.5 μg/ml) was “superior activities in reducing NFκB activation” and the “EC50 NFκB” value [1] was 3.775 µg/mL.

In the case of “HN- RRRFT[Nal]]LD (cyclic) (cyclo(RRRFT[Nal]LD)) [Peptide A3-1]”, the cytotoxic effects [5] is reported as “no cytotoxic effects”.

Ac-EEEVKFNKPFVFL[Nle]EEE [SA5] was tested, and the NFκB inhibition activity [1] was “minimal NFκB inhibition activity”.

For “HN-RRRFT[Nal]L[Nle]D (cyclic) [Peptide A2-2]”, the “activity in reducing TNFα” value [3] was “superior activities in reducing TNFα” and the “activity in reducing NFκB activation” value [1, 9] was “superior activities”.

In the case of “Ac-RRRDFVFL[Nle][Dap] (also: cyclic (positions not given here)) [Peptide A10]”, the “activity in reducing TNFα activation” value [3] is reported as “improved activities in reducing TNFα activation”.

For “HN- [rK]RRFT[Nal]]LD (cyclic) ([rK]RRFT[Nal]LD; lactam 1-8) [Peptide A3-2]”, the cytotoxic effects [5] was “no cytotoxic effects”.

For “HN- RRRFTWL[dS]D (cyclic) (not fully specified (bridges); printed as HN- RRRFTWL[dS]D (cyclic); also: cyclic, mode of cyclisation not given here) [Peptide A3-16]”, the cytotoxic effects [5] was “no cytotoxic effects”.

With “HN-RRRFVFLD (cyclic) (not fully specified; cyclised or stapled) [Peptide A2-4]” the “activity in reducing TNFα” value [3] was “superior activities in reducing TNFα” and the “activity in reducing NFκB activation” value [1, 9] was “superior activities”.

“Ac-RRRCPFVFL[Nle]CRRR (cysteine pairing not given here) [SA6]” was tested, and the NFκB inhibition activity [1] was “improved activity in NFκB inhibition”.

For Ac-HHHPFVFL[Nle]HHH [SA2], the NFκB inhibition activity [1] was “minimal NFκB inhibition activity”.

“HN- RRRFT[Nal]L[dS]D (cyclic) [Peptide A3-15]” was tested, and the cytotoxic effects [5] was “no cytotoxic effects”.

With RRRFVFLAD (not fully specified; cyclic (HN- at the N-terminus (so in the source))) [SERPIN peptide derivative A2-3, HN-RRRFVFLAD (cyclic)] the “EC50, NFκB (reduction of NFκB activation, SEAP reporter cells, LPS)” value [6] was 2.65 µg/mL, the “EC50, IL-6 (IMG microglial cells, LPS, ELISA)” value [7] was 3.38 µg/mL and the “EC50, TNFα (IMG microglial cells, LPS, ELISA)” value (shortened to “EC50, TNFα”) [7] was 11.8 µg/mL.

RRRFVFLD (not fully specified; cyclic (HN- at the N-terminus (so in the source))) [SERPIN peptide derivative A2-4, HN-RRRFVFLD (cyclic)] was tested, and the “EC50, NFκB (reduction of NFκB activation, SEAP reporter cells, LPS)” value [6] was 5.25 µg/mL, the “EC50, IL-6 (IMG microglial cells, LPS, ELISA)” value [7] was 11.3 µg/mL and the “EC50, TNFα” value [7] was 12.5 µg/mL.

B1: SERPIN peptide derivative A3-14, HN-RRRAT[Nal]L[Nle]D (cyclic) (peptide)
peptide: RRRAT[Nal]L[Nle]D
modifications: not fully specified (bridges); printed as HN- RRRAT[Nal]L[NIe]D (cyclic); also: cyclic, ring not given here
B1 was tested, and the “EC50, NFκB (reduction of NFκB activation, SEAP reporter cells, LPS)” value [6] was 3.77 µg/mL, the “EC50, IL-6 (IMG microglial cells, LPS, ELISA)” value [7] was 0.605 µg/mL and the “EC50, TNFα” value [7] was 6 µg/mL.

B2: SERPIN peptide derivative A2-5, HN-RRRFVFL[dS]D (cyclic) (peptide)
peptide: RRRFVFLSD
modifications: not fully specified; D-Ser at position 8; cyclic (HN- at the N-terminus (so in the source))
For B2, the “EC50, NFκB (reduction of NFκB activation, SEAP reporter cells, LPS)” value [6] was 1.47 µg/mL, the “EC50, IL-6 (IMG microglial cells, LPS, ELISA)” value [7] was 1.4 µg/mL and the “EC50, TNFα” value [7] was 2.39 µg/mL.

In the case of Ac-RRR[Dap]FT[Nal]L[Nle]D [SERPIN peptide derivative A2-1, Ac-RRR[Dap]FT[Nal]L[Nle]D (cyclic)], the “EC50, NFκB (reduction of NFκB activation, SEAP reporter cells, LPS)” value [6] is reported as 5.77 µg/mL, the “EC50, IL-6 (IMG microglial cells, LPS, ELISA)” value [7] is reported as 9.64 µg/mL and the “EC50, TNFα” value [7] is reported as 13 µg/mL.

B3: SERPIN peptide derivative A3-10, HN-RRRFVFL[dDap]D (cyclic) (peptide)
peptide: RRRFVFLXD
modifications: not fully specified; D-Dap at position 8; cyclic (HN- at the N-terminus (so in the source))
In the case of B3, the “EC50, NFκB (reduction of NFκB activation, SEAP reporter cells, LPS)” value [6] is reported as 2.16 µg/mL, the “EC50, IL-6 (IMG microglial cells, LPS, ELISA)” value [7] is reported as 58.5 µg/mL and the “EC50, TNFα” value [7] is reported as 34.6 µg/mL.

For Ac-RRRCPFVFL[Nle]C (disulfide 4-11 (inferred)) [SERPIN peptide derivative SA7, Ac-RRRCPFVFL[Nle]C (cyclic)], the “IC50, protease TMPRSS2 activity in an overexpressing cell system” value [8] was 0.083 µg/mL, the “EC50, NFκB (reduction of NFκB activation, SEAP reporter cells, LPS)” value [6] was 470 µg/mL and the “EC50, IL-6 (IMG microglial cells, LPS, ELISA)” value [7] was 318 µg/mL. For the same molecule, the “EC50, TNFα” value [7] was 124 µg/mL.

Ac-RRRKFT[Nal]LD (lactam 4-9) [SERPIN peptide derivative A3-7, Ac-RRRKFT[Nal]LD (cyclic)] was tested, and the “EC50, NFκB (reduction of NFκB activation, SEAP reporter cells, LPS)” value [6] was 22.4 µg/mL and the “EC50, IL-6 (IMG microglial cells, LPS, ELISA)” value [7] was 3.65 µg/mL.

VKFNKPFVFLMIEQNTK [SERPIN peptide SP16 (VKFNKPFVFLMIEQNTK)] was tested, and the “EC50, NFκB (reduction of NFκB activation, SEAP reporter cells, LPS)” value [6] was 152 µg/mL and the “EC50, TNFα” value [7] was roughly 618 µg/mL.

B4: SERPIN peptide derivative A15, HN-RRRFVFL[Nle]D (cyclic) (peptide)
peptide: RRRFVFLXD
modifications: not fully specified; Nle (norleucine) at position 8; cyclic: head-to-tail linker between the amino group of the N-terminal Arg and the side-chain carboxylic acid of the C-terminal Asp, ring closing length 12 C-C bonds
In the case of B4, the “EC50, NFκB (reduction of NFκB activation, SEAP reporter cells, LPS)” value [6] is reported as 5.05 µg/mL, the “EC50, IL-6 (IMG microglial cells, LPS, ELISA)” value [7] is reported as 32.4 µg/mL and the “EC50, TNFα” value [7] is reported as 36.8 µg/mL.
